Laboratory results: patent US20220226299A1 (NIPPON CHEMIPHAR CO., LTD., priority 2019, published 2022)

Biological target: T1, human Cav3.2 channels (Homo sapiens, UniProt O95180)
T1 construct: human Cav3.2 channel ORF (Open Reading Frame) gene; expressed in transfected cells; host or cells: HEK293 cells (ATCC No. CRL-1573), pcDNA3.1(+) plasmid
Test: T-type calcium blocking action: intracellular calcium (Fluo-4 AM fluorescence) in HEK293 cells steadily expressing human Cav3.2 channels
Assay type: cell-based
Conditions: HEK293 cells expressing human Cav3.2; KCl-stimulated calcium influx, Fluo-4 fluorescence; Tables 1 to 3
Text: T-Type Calcium Blocking Action
(1) Construction of Cells Steadily Expressing Human Cav3.2 Channels
A sequence obtained by adding HindIII site and a kozak sequence (GCCACC) to the 5′-side of human Cav3.2 channel ORF (Open Reading Frame) gene and adding a KpnI site to the 3′-side of the gene, was incorporated into pcDNA3.1(+) (Thermo Fisher Scientific, #V790-20), and the plasmid was introduced into HEK293 cells (ATCC No. CRL-1573) according to the protocol of FuGENE (registered trademark) HD Transfection Reagent (Promega, #E2311).
(2) Method for Measuring Intracellular Calcium Concentration
The cells steadily expressing human Cav3.2 channels produced by testing method (1) were seeded on a 96-well plate (Dulbecco's modified Eagle medium (DMEM) medium containing 10% fetal bovine serum (FBS) was used as a medium). The cells were seeded and cultured for 48 hours under conditions of 37° C. and 5% CO2. Thereafter, the cells were washed with buffer A in order to remove the medium. Each well was treated with 80 μL of a fluorescent dye solution produced by mixing 22 μg of a fluorescent calcium indicator, Fluo-4 AM (Dojindo Laboratories, #F311), 20 μL of DMSO, 1 μL of 10% Pluronic F-127 (Thermo Fisher Scientific, #P6866), and 4 mL of buffer A. The cells were allowed to stand for 45 minutes at room temperature under light-shielded conditions, and then washed with buffer B in order to completely replace the solution. 70 μL of DMSO having the same concentration as that of a test compound as a negative control and 70 μL of a mixture containing 1 μM of a known blocker RQ-00311651 and the test compound as a positive control were each added to each well in a form of being contained in the buffer B. The test compound was dissolved in 100% DMSO and added at a final concentration of 0.1%. Then, the cells were further allowed to stand at room temperature under light-shielded conditions for 15 minutes and placed in a microplate reader EnVision (PerkinElmer). Background fluorescence was measured in each well, and then a 5 μg/mL grammicidin solution was added to buffer B at 10 μL/well. After 90 seconds, baseline fluorescence was measured. Thereafter, 83.8 mM KCl was added to buffer B at 20 μL/well, and an increase in fluorescence caused by calcium influx generated by the stimulus was measured for 10 seconds. A blocking percentage was calculated from a maximum fluorescence increase value from a baseline, a logarithmic value of a compound concentration and blockery activity were plotted, and thereby an IC50 value was calculated. In the measurement, fluorescence at 510 nm that was emitted when the cells were irradiated with excitation light at 485 nm was observed.
Buffer A: 140 mM NaCl, 5 mM KCl, 1 mM MgCl2, 0.5 mM CaCl2, 10 mM Glucose, 10 mM HEPES, pH 7.3
Buffer B: 137.9 mM Choline-Cl, 4.1 mM KCl, 1 mM MgCl2, 0.5 mM CaCl2, 10 mM Glucose, 10 mM HEPES, pH 7.3

T1 sequence (O95180 whole entry): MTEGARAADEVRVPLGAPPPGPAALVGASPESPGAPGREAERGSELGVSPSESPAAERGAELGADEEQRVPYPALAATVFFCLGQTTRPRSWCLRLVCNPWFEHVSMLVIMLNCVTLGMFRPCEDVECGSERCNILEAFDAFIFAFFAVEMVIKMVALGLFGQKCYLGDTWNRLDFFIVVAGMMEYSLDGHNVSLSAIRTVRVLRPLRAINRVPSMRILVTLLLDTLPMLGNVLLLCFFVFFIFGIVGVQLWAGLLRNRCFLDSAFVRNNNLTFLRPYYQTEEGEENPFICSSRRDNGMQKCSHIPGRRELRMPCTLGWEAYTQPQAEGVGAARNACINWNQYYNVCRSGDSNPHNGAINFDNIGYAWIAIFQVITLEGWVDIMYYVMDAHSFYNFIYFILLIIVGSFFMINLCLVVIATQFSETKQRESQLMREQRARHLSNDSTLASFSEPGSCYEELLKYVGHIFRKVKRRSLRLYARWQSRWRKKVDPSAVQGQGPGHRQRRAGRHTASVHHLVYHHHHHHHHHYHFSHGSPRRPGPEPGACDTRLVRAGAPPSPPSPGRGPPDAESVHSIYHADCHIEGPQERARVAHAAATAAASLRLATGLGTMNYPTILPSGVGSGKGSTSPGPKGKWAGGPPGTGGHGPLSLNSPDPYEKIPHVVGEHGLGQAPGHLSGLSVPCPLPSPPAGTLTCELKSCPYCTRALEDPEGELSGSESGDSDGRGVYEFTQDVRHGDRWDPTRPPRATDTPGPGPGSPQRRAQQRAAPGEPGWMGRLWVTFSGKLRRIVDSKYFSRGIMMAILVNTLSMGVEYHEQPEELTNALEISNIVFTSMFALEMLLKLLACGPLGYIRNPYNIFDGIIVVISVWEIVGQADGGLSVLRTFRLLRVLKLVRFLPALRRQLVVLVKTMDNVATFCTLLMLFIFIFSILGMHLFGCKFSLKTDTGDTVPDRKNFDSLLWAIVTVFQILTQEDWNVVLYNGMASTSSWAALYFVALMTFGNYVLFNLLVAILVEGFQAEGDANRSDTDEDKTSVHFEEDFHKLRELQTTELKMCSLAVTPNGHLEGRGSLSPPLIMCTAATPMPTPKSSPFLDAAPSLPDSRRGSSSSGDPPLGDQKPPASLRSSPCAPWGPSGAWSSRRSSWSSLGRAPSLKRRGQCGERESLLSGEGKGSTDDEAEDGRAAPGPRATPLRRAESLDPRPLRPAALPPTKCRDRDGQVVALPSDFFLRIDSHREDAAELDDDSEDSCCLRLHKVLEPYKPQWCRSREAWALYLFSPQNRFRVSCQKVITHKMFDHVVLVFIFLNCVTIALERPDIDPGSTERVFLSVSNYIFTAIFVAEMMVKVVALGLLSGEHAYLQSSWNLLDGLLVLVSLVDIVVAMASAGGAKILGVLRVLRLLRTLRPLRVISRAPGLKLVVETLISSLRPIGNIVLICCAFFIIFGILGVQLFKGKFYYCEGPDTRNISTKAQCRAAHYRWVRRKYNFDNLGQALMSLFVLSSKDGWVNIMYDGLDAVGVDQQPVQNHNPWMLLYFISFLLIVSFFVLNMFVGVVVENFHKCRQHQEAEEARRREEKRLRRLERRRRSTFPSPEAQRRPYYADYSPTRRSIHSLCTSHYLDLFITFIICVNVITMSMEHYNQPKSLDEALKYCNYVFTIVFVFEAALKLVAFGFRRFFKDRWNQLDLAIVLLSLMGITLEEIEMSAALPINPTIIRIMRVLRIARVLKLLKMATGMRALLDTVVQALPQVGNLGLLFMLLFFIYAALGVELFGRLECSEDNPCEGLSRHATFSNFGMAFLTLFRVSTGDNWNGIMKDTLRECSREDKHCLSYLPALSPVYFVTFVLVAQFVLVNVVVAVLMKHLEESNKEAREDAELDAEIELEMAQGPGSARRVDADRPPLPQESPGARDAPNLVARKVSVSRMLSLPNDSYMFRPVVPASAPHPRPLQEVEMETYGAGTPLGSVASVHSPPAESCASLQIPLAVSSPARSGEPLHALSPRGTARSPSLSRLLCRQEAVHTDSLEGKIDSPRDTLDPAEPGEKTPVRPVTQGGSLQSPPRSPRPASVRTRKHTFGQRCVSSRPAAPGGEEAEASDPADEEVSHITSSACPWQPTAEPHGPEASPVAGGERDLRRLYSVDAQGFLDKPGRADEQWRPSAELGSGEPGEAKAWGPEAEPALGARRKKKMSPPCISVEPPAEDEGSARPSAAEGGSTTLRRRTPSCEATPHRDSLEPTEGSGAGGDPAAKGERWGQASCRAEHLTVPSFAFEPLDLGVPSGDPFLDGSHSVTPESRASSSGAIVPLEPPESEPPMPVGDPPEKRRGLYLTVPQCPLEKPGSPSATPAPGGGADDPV

Structure (SMILES) | IC50
O=C(Cc1ccc(N2CCS(=O)(=O)CC2)cc1)N[C@@H]1CCN(c2cncc(C(F)(F)F)c2)C1 [Example 23, (R)-2-(4-(1,1-dioxidethiomorpholino)phenyl)-N-(1-(5-(trifluoromethyl)pyridin-3-yl)pyrrolidin-3-yl)acetamide] | 150 nM
COC(=O)C1(NC(=O)Cc2ccc(C3CC3)cc2)CCN(c2cncc(C(F)(F)F)c2)C1 (centres unmarked) [Example 13, Methyl 3-(2-(4-cyclopropylphenyl)acetamido)-1-(5-(trifluoromethyl)pyridin-3-yl)pyrrolidine-3-carboxylate] | 18 nM
COCCN(C)c1ccc(CC(=O)N[C@@H]2CCN(c3cncc(C(F)(F)F)c3)C2)cc1 [Example 88, (R)-2-(4-((2-methoxyethyl)(methyl)amino)phenyl)-N-(1-(5-(trifluoromethyl)pyridin-3-yl)pyrrolidin-3-yl)acetamide] | 19 nM
CN(C)c1ccc(CC(=O)N[C@@H]2CCN(c3cncc(C(F)(F)F)c3)C2)cc1 [Example 29, (R)-2-(4-(dimethylamino)phenyl)-N-(1-(5-(trifluoromethyl)pyridin-3-yl)pyrrolidin-3-yl)acetamide] | 40 nM
CC1(C)CN(c2ccc(CC(=O)N[C@@H]3CCN(c4cncc(C(F)(F)F)c4)C3)cc2)CCO1 [Example 145, (R)-2-(4-(2,2-dimethylmorpholino)phenyl)-N-(1-(5-(trifluoromethyl)pyridin-3-yl)pyrrolidin-3-yl)acetamide] | 130 nM
CC(C)(O)c1ccc(CC(=O)N[C@@H]2CCN(c3cncc(C(F)(F)F)c3)C2)cc1 [Example 131, (R)-2-(4-(2-hydroxypropan-2-yl)phenyl)-N-(1-(5-(trifluoromethyl)pyridin-3-yl)pyrrolidin-3-yl)acetamide] | 200 nM
O=C(N[C@@H]1CCN(c2cncc(C(F)(F)F)c2)C1)C(O)c1ccc(Br)cc1 (stereo partly drawn) [Example 25, 2-(4-Bromophenyl)-2-hydroxy-N—((R)-1-(5-(trifluoromethyl)pyridin-3-yl)pyrrolidin-3-yl)acetamide] | 2000 nM
O=C(Cc1ccc(C(F)(F)F)cc1C(F)(F)F)N[C@@H]1CCN(c2cncc(C(F)(F)F)c2)C1 [Example 140, (R)-2-(2,4-bis(trifluoromethyl)phenyl)-N-(1-(5-(trifluoromethyl)pyridin-3-yl)pyrrolidin-3-yl)acetamide] | 1100 nM
O=C(Cc1ccc(N2CCC(F)(F)C2)cc1)N[C@@H]1CCN(c2cncc(C(F)(F)F)c2)C1 [Example 176, (R)-2-(4-(3,3-difluoropyrrolidin-1-yl)phenyl)-N-(1-(5-(trifluoromethyl)pyridin-3-yl)pyrrolidin-3-yl)acetamide] | 7.3 nM
COCC1(NC(=O)Cc2ccc(C3CC3)cc2)CCN(c2cncc(C(F)(F)F)c2)C1 (centres unmarked) [Example 105, 2-(4-cyclopropylphenyl)-N-(3-(methoxymethyl)-1-(5-(trifluoromethyl)pyridin-3-yl)pyrrolidin-3-yl)acetamide] | 240 nM
CC(C)c1ccc(CC(=O)NC2CN(c3cncc(C(F)(F)F)c3)C2)cc1 [Example 117, 2-(4-Isopropylphenyl)-N-(1-(5-(trifluoromethyl)pyridin-3-yl)azetidin-3-yl)acetamide] | 71 nM
CC(C)(O)c1cncc(N2CC[C@@H](NC(=O)Cc3ccc(C4CC4)cc3)C2)c1 [Example 19, (R)-2-(4-cyclopropylphenyl)-N-(1-(5-(2-hydroxypropan-2-yl)pyridin-3-yl)pyrrolidin-3-yl)acetamide] | 3500 nM
O=C(Cc1ccc(C2CC2)cc1)NC1(C(F)(F)F)CCN(c2cncc(C(F)(F)F)c2)C1 (centres unmarked) [Example 161, 2-(4-cyclopropylphenyl)-N-(3-(trifluoromethyl)-1-(5-(trifluoromethyl)pyridin-3-yl)pyrrolidin-3-yl)acetamide] | 260 nM

Second part, the compound after the results:

IC50 | Structure (SMILES)
110 nM | CC(C)c1ccc(CC(=O)N[C@@H]2CCN(c3nc(C(F)(F)F)cs3)C2)cc1 [Example 112, (R)-2-(4-isopropylphenyl)-N-(1-(4-(trifluoromethyl)thiazol-2-yl)pyrrolidin-3-yl)acetamide]
13 nM | O=C(Cc1ccc(C2CC2)cc1)N[C@@H]1CCN(c2cncc(C(F)(F)F)c2)C1 [Example 1, (R)-2-(4-cyclopropylphenyl)-N-(1-(5-(trifluoromethyl)pyridin-3-yl)pyrrolidin-3-yl)acetamide]
350 nM | O=C(N[C@@H]1CCN(c2nc(C(F)(F)F)cs2)C1)[C@H]1C[C@@H]1c1nc2ccccc2o1 [Example 47, (1S,2S)-2-(benzo[d]oxazol-2-yl)-N—((R)-1-(4-(trifluoromethyl)thiazol-2-yl)pyrrolidin-3-yl)cyclopropane-1-carboxyamide]
37 nM | O=C(N[C@@H]1CCN(c2nc(C(F)(F)F)cs2)C1)[C@H]1C[C@@H]1c1nc2ccccc2[nH]1 [Example 64, (1S,2S)-2-(1H-benzo[d]imidazol-2-yl)-N—((R)-1-(4-(trifluoromethyl)thiazol-2-yl)pyrrolidin-3-yl)cyclopropane-1-carboxyamide]
69 nM | O=C(N[C@@H]1CCN(c2ccc(C(F)(F)F)nc2)C1)C1CC1c1c[nH]c2ccccc12 (single isomer, unassigned) [Example 66]
1200 nM | CC(C)c1ccc(CC(=O)N[C@H]2CCN(c3cncc(C(F)(F)F)c3)C2)cc1 [Example 114, (S)-2-(4-isopropylphenyl)-N-(1-(5-(trifluoromethyl)pyridin-3-yl)pyrrolidin-3-yl)acetamide]
260 nM | O=C(Cc1ccc(N2CC3(COC3)C2)cc1)N[C@@H]1CCN(c2cncc(C(F)(F)F)c2)C1 [Example 46, (R)-2-(4-(2-oxa-6-azaspiro[3.3]heptan-6-yl)phenyl)-N-(1-(5-(trifluoromethyl)pyridin-3-yl)pyrrolidin-3-yl) acetamide]
1600 nM | O=C(Cc1ccc(O)cc1)N[C@@H]1CCN(c2cncc(C(F)(F)F)c2)C1 [Example 22, (R)-2-(4-hydroxyphenyl)-N-(1-(5-(trifluoromethyl)pyridin-3-yl)pyrrolidin-3-yl)acetamide]
120 nM | Cn1ncc2cc(CC(=O)N[C@@H]3CCN(c4nc(C(F)(F)F)cs4)C3)ccc21 [Example 143, (R)-2-(1-methyl-1H-indazol-5-yl)-N-(1-(4-(trifluoromethyl)thiazol-2-yl)pyrrolidin-3-yl)acetamide]
320 nM | O=C(Cc1ccc(C2CC2)cc1)N[C@@H]1CCN(c2nc(C(F)(F)F)cs2)C1 [Example 16, (R)-2-(4-cyclopropylphenyl)-N-(1-(4-(trifluoromethyl)thiazol-2-yl)pyrrolidin-3-yl)acetamide]
680 nM | O=C(N[C@@H]1CCN(c2cncc(C(F)(F)F)c2)C1)[C@@H]1C[C@H]1c1nc2ccccc2o1 [Example 50, (1R,2R)-2-(benzo[d]oxazol-2-yl)-N—((R)-1-(5-(trifluoromethyl)pyridin-3-yl)pyrrolidin-3-yl)cyclopropane-1-carboxyamide]
1500 nM | CC(C)c1ccc(CC(=O)N[C@@H]2CCN(c3ccc(C(F)(F)F)s3)C2)cc1 [Example 122, (R)-2-(4-isopropylphenyl)-N-(1-(5-(trifluoromethyl)thiophen-2-yl)pyrrolidin-3-yl)acetamide]
1000 nM | Nc1ccc(CC(=O)N[C@@H]2CCN(c3cncc(C(F)(F)F)c3)C2)cc1 [Example 33, (R)-2-(4-aminophenyl)-N-(1-(5-(trifluoromethyl)pyridin-3-yl)pyrrolidin-3-yl)acetamide]
1000 nM | O=C(N[C@@H]1CCN(c2ccc(C(F)(F)F)nc2)C1)[C@H]1C[C@@H]1c1nc2ccccc2n1C1CC1 [Example 73, (1S,2S)-2-(1-cyclopropyl-1H-benzo[d]imidazol-2-yl)-N—((R)-1-(6-(trifluoromethyl)pyridin-3-yl)pyrrolidin-3-yl)cyclopropane-1-carboxyamide]
510 nM | O=C(Cc1ccc2cc[nH]c2c1)N[C@@H]1CCN(c2nc(C(F)(F)F)cs2)C1 [Example 187, (R)-2-(1H-indol-6-yl)-N-(1-(4-(trifluoromethyl)thiazol-2-yl)pyrrolidin-3-yl)acetamide]
11 nM | O=C(N[C@@H]1CCN(c2cncc(C(F)(F)F)c2)C1)C1CC1c1ccc(C2CC2)cc1 (single isomer, unassigned) [Example 106A]
